Reference: US11413360B2, “Dual mode radiotracer and—therapeutics” (priority 2017, dated 2022)
Like-named read-outs stand apart in the source and are kept apart here.

Experiments:
[1] = target: T1, PSMA (Homo sapiens, UniProt Q04609); assay: Determination of PSMA affinity (IC50), competition with ([125I]I-BA)KuE on LNCaP cells; type: binding; settings: ([125I]I-BA)KuE 0.2 nM, 1 h, 4° C., mean ± SD, read-out: IC50
T1 construct: endogenous in cells; host or cells: LNCaP cells
Method: After removal of the culture medium, the cells were treated once with 500 μL of HBSS (Hank's balanced salt solution, Biochrom, Berlin, Germany, with addition of 1% bovine serum albumin (BSA)) and left 15 min on ice for equilibration in 200 μL HBSS (1% BSA). […] Quantification of bound and free radioligand was accomplished in a γ-counter.

[2] = system: prostate cancer tumor lesions; assay: Human PET uptake in and detection of prostate cancer tumor lesions with 18F-labelled PSMA-SIFA3 (7); type: in vivo
Description: Gluteal muscle served as background.

[3] = Octanol-water partition coefficient (log D) of radiolabelled ligands; type: physicochemical; settings: n-octanol/PBS, n = 6
Method: Approximately 1 MBq of the labelled tracer was dissolved in 1 mL of a 1:1 mixture (by volumes) of phosphate buffered saline (PBS, pH 7.4) and n-octanol in an Eppendorf tube. After vigorous mixing of the suspension for 3 minutes at room temperature, the vial was centrifuged at 15000 g for 3 minutes (Biofuge 15, Heraus Sepatech, Osterode, Germany) and 100 μL aliquots of both layers were measured in a gamma counter. The experiment was repeated at least six times.

[4] = target: Human Serum Albumin (Homo sapiens, UniProt P02768); assay: HSA binding on Chiralpak HSA column; type: in vitro ADME
Method: The mobile phase (A: NH4OAc, 50 mM in water, pH 7 and B: isopropanol) was freshly prepared for each experiment and only used for one day. The column was kept at room temperature and each run was stopped after detection of the signal to reduce the acquisition time. All substances were dissolved in a 0.5 mg/ml concentration in 50% 2-propanol and 50% 50 mM pH 6.9 ammonium acetate buffer. […] All nine reference substances (see Table 1) were injected consecutively to establish a non-linear regression with OriginPro 2016G; see FIG. 1.

[5] = system: recurrent prostate cancer; assay: PET/MR with 68Ga-labelled PSMA-SIFA3 (7) in one subject; type: in vivo, human; settings: 144 MBq, PET/MR 66 min after injection, one subject with biochemical recurrence
Method: As a proof on concept investigation of a ^68Ga-labelled SiFA substituted chelator-based PET tracers one subject with biochemical recurrence after radical prostatectomy (PSA 0.44 ng/ml, pT2c, pNO, Gleason 7b) underwent PET/MR 66 min after injection of 144 MBq ^68Ga-labelled PSMA-SIFA3 (7).

[6] = system: LNCaP cells; assay: Internalization of radiolabelled ligands into LNCaP cells; type: cell-based
Method: Subsequent to the removal of the culture medium, the cells were washed once with 500 μL DMEM-F12 (5% BSA) and left to equilibrate for at least 15 min at 37° C. in 200 μL DMEM-F12 (5% BSA). Each well was treated with either 25 μL of either DMEM-F12 (5% BSA) or a 100 μM PMPA solution for blockade. […] The experiment was terminated by placing the 24-well plate on ice for 3 min and consecutive removal of the medium. Each well was rinsed with 250 μL HBSS and the fractions from these first two steps combined, representing the amount of free radioligand. Removal of surface bound activity was accomplished by incubation of the cells with 250 μL of ice-cold PMPA (10 μM in PBS) solution for 5 min and rinsed again with another 250 μL of ice-cold PBS. The internalized activity was determined by incubation of the cells in 250 μL 1 M NaOH and the combination with the fraction of a subsequent wash step with 250 μL 1.0 M NaOH. Each experiment (control and blockade) was performed in triplicate. Free, surface bound and internalized activity was quantified in a γ-counter. […] Data were corrected for non-specific internalization and normalized to the specific-internalization observed for the radioiodinated reference compound.

[7] = in vivo
[8] = 18F-labelled, of 72 lesions analysed
[9] = 35 lesions with no correlate or small size on morphological imaging, 18F-labelled, human PET
[10] = bone metastases (n=21), 18F-labelled, human PET
[11] = local tumor (n=24), 18F-labelled, human PET
[12] = lymph node metastases (n=23), 18F-labelled, human PET
[13] = tumor lesions, 18F-labelled, human PET, n = 72
[14] = visceral metastases (n=4), 18F-labelled, human PET

T1 sequence (Q04609 whole entry): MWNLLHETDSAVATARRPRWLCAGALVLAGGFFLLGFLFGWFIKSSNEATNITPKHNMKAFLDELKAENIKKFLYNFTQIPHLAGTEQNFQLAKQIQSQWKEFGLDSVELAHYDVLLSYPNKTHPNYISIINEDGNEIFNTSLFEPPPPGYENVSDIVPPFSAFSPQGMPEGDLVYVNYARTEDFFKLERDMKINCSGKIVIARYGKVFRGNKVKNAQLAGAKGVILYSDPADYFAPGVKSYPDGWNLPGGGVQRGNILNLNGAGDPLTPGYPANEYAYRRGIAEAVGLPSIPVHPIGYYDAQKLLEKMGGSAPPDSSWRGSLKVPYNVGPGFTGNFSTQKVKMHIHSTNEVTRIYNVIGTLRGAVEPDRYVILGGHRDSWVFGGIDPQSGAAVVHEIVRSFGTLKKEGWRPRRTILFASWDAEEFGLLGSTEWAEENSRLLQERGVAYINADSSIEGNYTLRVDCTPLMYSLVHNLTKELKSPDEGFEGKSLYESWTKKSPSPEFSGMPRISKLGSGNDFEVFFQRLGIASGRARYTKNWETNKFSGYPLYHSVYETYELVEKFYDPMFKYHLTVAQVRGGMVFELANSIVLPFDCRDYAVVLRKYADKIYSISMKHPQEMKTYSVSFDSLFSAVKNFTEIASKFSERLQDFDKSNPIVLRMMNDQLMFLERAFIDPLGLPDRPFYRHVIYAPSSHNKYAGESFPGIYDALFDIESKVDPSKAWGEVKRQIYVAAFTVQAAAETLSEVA
Human Serum Albumin, sequence (P02768 25-609): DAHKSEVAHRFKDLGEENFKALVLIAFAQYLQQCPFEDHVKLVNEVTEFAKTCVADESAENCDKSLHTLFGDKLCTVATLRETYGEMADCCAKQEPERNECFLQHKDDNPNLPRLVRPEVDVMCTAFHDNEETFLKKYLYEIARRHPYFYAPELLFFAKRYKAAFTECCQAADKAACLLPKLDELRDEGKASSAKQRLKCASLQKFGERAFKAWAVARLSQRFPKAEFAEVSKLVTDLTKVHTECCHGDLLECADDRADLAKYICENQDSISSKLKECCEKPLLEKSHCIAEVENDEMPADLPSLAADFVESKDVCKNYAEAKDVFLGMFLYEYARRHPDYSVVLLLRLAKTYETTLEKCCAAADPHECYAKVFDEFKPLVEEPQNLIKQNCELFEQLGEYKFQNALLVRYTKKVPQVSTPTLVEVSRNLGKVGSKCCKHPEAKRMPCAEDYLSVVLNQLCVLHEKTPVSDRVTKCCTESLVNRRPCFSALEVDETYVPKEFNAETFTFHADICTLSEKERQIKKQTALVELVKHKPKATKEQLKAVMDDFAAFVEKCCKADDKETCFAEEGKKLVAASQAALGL

`CC(C)(C)[Si](F)(c1ccc(C(=O)NC[C@@H](NC(=O)CCC(C(=O)O)N2CCN(CC(=O)O)CCN(CC(=O)O)CCN(CC(=O)O)CC2)C(=O)N[C@H](CCCCNC(=O)CCC(=O)NCCC[C@@H](NC(=O)CC[C@H](NC(=O)N[C@@H](CCC(=O)O)C(=O)O)C(=O)O)C(=O)O)C(=O)O)cc1)C(C)(C)C` (some centres unmarked) [ligand 7, PSMA-SIFA3] showed an IC50 ([1]; natF-L (uncomplexed)) of 3.5 ± 0.2 nM, an IC50 ([1]; natGa-natF-L) of 3 ± 0.7 nM and an IC50 ([1]; natLu-natF-L) of 3.9 ± 0.5 nM. The SUVmax max [2] was 25, the SUVmean max [2] was 28.3 and the “ratio SUVmax to background max” value [2] was 43.8. For the same molecule, the “ratio SUVmean to background max” value [2] was 56.6, the “patients in whom lesions indicative for prostate cancer were detected” value ([2]; 18F-labelled, 53 subjects imaged (primary staging n=6, recurrent disease n=47)) was 39 patients and the “lesions with no correlate on morphological imaging” value [2, 8] was 21 lesions. The “lesions with size of equal or less than 5 mm on morphological imaging” value [2, 8] was 14 lesions, the “uptake in prostate cancer lesions (individual patient images)” value ([2]; 18F-labelled, single patients, FIG. 26 and FIG. 27) was “high uptake” and the SUVmax mean [2, 9] was 16.7. The SUVmax min [2, 9] was 9.2, the SUVmean mean [2, 9] was 13.3 and the SUVmean min [2, 9] was 6.4. For the same molecule, the “ratio SUVmax to background mean” value [2, 9] was 18.3, the “ratio SUVmax to background min” value [2, 9] was 5.8 and the “ratio SUVmean to background mean” value [2, 9] was 22.9. The “ratio SUVmean to background min” value [2, 9] was 7.1, the SUVmax max [2, 10] was 95.4 and the SUVmax mean [2, 10] was 31.2. It also gave an SUVmax min [2, 10] of 7.9, an SUVmean max [2, 10] of 71.7 and an SUVmean mean [2, 10] of 22.2. The SUVmean min [2, 10] was 5.3, the “ratio SUVmax to background max” value [2, 10] was 73.4 and the “ratio SUVmax to background mean” value [2, 10] was 32.8. For the same molecule, the “ratio SUVmax to background min” value [2, 10] was 7.9, the “ratio SUVmean to background max” value [2, 10] was 80 and the “ratio SUVmean to background mean” value [2, 10] was 36.6. The “ratio SUVmean to background min” value [2, 10] was 8.8, the SUVmax max [2, 11] was 75.1 and the SUVmax mean [2, 11] was 26.9. For the same molecule, the SUVmax min [2, 11] was 4, the SUVmean max [2, 11] was 19.3 and the SUVmean mean [2, 11] was 19.3. The SUVmean min [2, 11] was 2.7, the “ratio SUVmax to background max” value [2, 11] was 83.4 and the “ratio SUVmax to background mean” value [2, 11] was 29.6. The “ratio SUVmax to background min” value [2, 11] was 5, the “ratio SUVmean to background max” value [2, 11] was 83.2 and the “ratio SUVmean to background mean” value [2, 11] was 32.4. The “ratio SUVmean to background min” value [2, 11] was 5.4, the SUVmax max [2, 12] was 67.5 and the SUVmax mean [2, 12] was 22.2. It also gave an SUVmax min [2, 12] of 8.1, an SUVmean max [2, 12] of 44.6 and an SUVmean mean [2, 12] of 16.6. For the same molecule, the SUVmean min [2, 12] was 6.4, the “ratio SUVmax to background max” value [2, 12] was 63.6 and the “ratio SUVmax to background mean” value [2, 12] was 23.7. The “ratio SUVmax to background min” value [2, 12] was 5.8, the “ratio SUVmean to background max” value [2, 12] was 70.7 and the “ratio SUVmean to background mean” value [2, 12] was 27.3. For the same molecule, the “ratio SUVmean to background min” value [2, 12] was 7.1, the SUVmax max [2, 13] was 95.4 and the SUVmax mean [2, 13] was 26.6. The SUVmax min [2, 13] was 4.0, the SUVmean max [2, 13] was 71.7 and the SUVmean mean [2, 13] was 19.2. For the same molecule, the SUVmean min [2, 13] was 2.7, the “ratio SUVmax to background max” value [2, 13] was 83.4 and the “ratio SUVmax to background mean” value [2, 13] was 28.6. The “ratio SUVmax to background min” value [2, 13] was 5.0, the “ratio SUVmean to background max” value [2, 13] was 83.2 and the “ratio SUVmean to background mean” value [2, 13] was 31.9. For the same molecule, the “ratio SUVmean to background min” value [2, 13] was 5.4, the SUVmax max [2, 14] was 32.5 and the SUVmax mean [2, 14] was 26.1. For the same molecule, the SUVmax min [2, 14] was 20.4, the SUVmean max [2, 14] was 19.1 and the SUVmean mean [2, 14] was 17.4. The SUVmean min [2, 14] was 15.5, the “ratio SUVmax to background max” value [2, 14] was 40.6 and the “ratio SUVmax to background mean” value [2, 14] was 28.9. The “ratio SUVmax to background min” value [2, 14] was 18.5, the “ratio SUVmean to background max” value [2, 14] was 38.2 and the “ratio SUVmean to background mean” value [2, 14] was 30.2. The “ratio SUVmean to background min” value [2, 14] was 22.1, the logD ([3]; pH 7.4, 18F-L) was -1.98 ± 0.04 and the logD ([3]; pH 7.4, 68Ga-natF-L) was -3.18 ± 0.05. It also gave a logD ([3]; pH 7.4, 177Lu-natF-L) of -4.2 ± 0.09, an HSA binding ([4]; natGa-natF-L) of 95.7% and an HSA binding ([4]; natLu-natF-L) of 97.7%. The “uptake in lesion (proof of concept)” value [5] was “Uptake typical for recurrent prostate cancer is demonstrated in a 2 mm lymph node”, the Internalization ([6]; 18F-L, 0.5 nM, 1 hour, 37° C., % of reference ligand ([125I]I-BA)KuE, mean ± SD) was 164.8 ± 4.5% and the Internalization ([6]; 177Lu-natF-L, 0.5 nM, 1 hour, 37° C., % of reference ligand ([125I]I-BA)KuE, mean ± SD) was 185.8 ± 4.5%. For the same molecule, the Internalization ([6]; 1 h, 0.0005 µM) was 126.0 ± 13.1% and the “adverse events / clinically detectable pharmacological effects” value [7] was “No adverse events or clinically detectable pharmacological effects were noted”.
